Columns and labels:
D. melanogaster = experiment: Airborne toxicity petri dish assay, adult flies exposed to VOC vapours (FIG. 1A); assay type: in vivo, Drosophila melanogaster; conditions: for LD50 (expected concentration at which 50% of the flies die): D. melanogaster adults, vapours from solution in paraffin oil, within an hour
Excerpt: In particular, adult flies 2 were exposed to compositions 4 comprising one or more of a selection of VOCs according to the invention or a comparative example, in a petri dish 6. The compositions 4 were loaded onto the lid 6a of the petri dish 6 and the flies were placed into the base 6b of the dish, which was then covered by a sheet of plastic mesh netting 8 to avoid direct contact of the flies 2 with the compositions 4, before replacing the lid 6a. The onset of paralysis/loss of locomotion control, ultimately resulting in death of the flies 2, was monitored over a period of 1 hour or until all flies 2 were dead, determined when fly wings were vertical (similar to the protocol described in Legal et al. 1992 and 1994).
Having established that the VOCs of the invention are toxic to Drosophila spp., and in particular, D. suzukii, upon exposure to the vapours from a 10% vol. solution, the inventors set out to determine the range of concentrations at which the pesticide VOCs of the invention are expected to be lethal to Drosphila spp. Two species were chosen: the pest D. suzukii and the common Drosophila model D. melanogaster. Two exemplary compounds were chosen: (E)-2-hexenal and methyl benzoate, both of which were shown in Example 1 to be highly toxic to D. suzukii. The experimental set up used was as described in relation to FIG. 1A.
FIGS. 3A and 3C show the proportion of dead flies as a function of time in minutes, when exposed to the vapours of (E)-2-hexenal (FIG. 3A) or methyl benzoate (FIG. 3C) from a 1%, 5%, 10%, or 20% solution in paraffin oil or from pure (E)-2-hexenal or methyl benzoate. […] The data is shown as averages±SEM based on 3 to 6 trials for each condition. […]

adult D. suzukii flies = experiment: Petri dish assay, dose-range 0.3 to 10% vol in paraffin oil, 24 h exposure (FIG. 3E); assay type: in vivo, Drosophila suzukii; conditions: paraffin oil, 24 h exposure (Example 2)
Excerpt: Data are represented as mean proportion of dead flies, with counts separated between male (as indicated by ‘M’) and female (as indicated by ‘F’) flies. […] Data points marked NaN were not tested at the indicated concentration. The MEC column summarises the minimal effective concentration to induce 100% morbidity/mortality to adult D. suzukii flies.

D. suzukii larvae [1] = experiment: Survival and development of larvae in pre-infested blueberries; assay type: in vivo, Drosophila suzukii; conditions: counted after 12 days
Procedure: To investigate the impact of (E)-2-hexenal on the emergence of D. suzukii, eight ripe, untreated blueberries were placed in the cage 60a together with adult D. suzukii flies for 4 days. All flies were then removed and discarded and half of the pre-infested blueberries was dipped into 10 mL of a 1%, 5% or 10% E-2-hexenal aqueous emulsion (as above), while the other half was dipped in 10 mL deionized water as a control. Survival of D. suzukii larvae was measured by counting the number of adult flies that emerged from the odour-treated blueberries versus the control condition after 12 days.
The percentage of adult fly emergence under the treated and untreated conditions relative to the sum of all flies that emerged under both conditions in each assay was calculated. The results of these experiments are shown on FIG. 6C (1% vol (E)-2-hexenal), FIG. 6D (5% vol. (E)-2-hexenal), and FIG. 6E (10% vol. (E)-2-hexenal).
Eight ripe, untreated blueberries were placed in a Petri dish at the bottom of a cylindrical plastic fly cage together with 20 mixed (10 females, 10 males) adult D. suzukii flies for 4 days. All flies were then removed and discarded and half of the pre-infested blueberries was dipped into 10 mL of a 1%, 5% or 10% (E)-2-hexenal aqueous emulsion, while the other half was dipped in 10 mL deionised water as a control. The blueberries were then left to air dry, then placed in empty fly vials with cotton lids and left at ambient room temperature conditions. Survival of D. suzukii larvae was measured by counting the number of adult flies that emerged from the odour-treated blueberries versus the control condition after 12 days. The assay was repeated 5 times.

D. suzukii larvae [2] = experiment: Fly larva chemotaxis assay; assay type: in vivo, Drosophila suzukii; conditions: 1% vol in paraffin oil, 5 minutes
Procedure: (§1) Larvae were exposed to 1% vol solution of (E)-2-hexenal or methyl benzoate in paraffin oil loaded onto the lid of a petri dish. Their movement was tracked for 5 minutes. A preference index was quantified as the fraction of time larvae spent in a zone around the odour sources. A population of 15 larvae were used per trial and they were placed in the centre of the petri dish at the start of the experiment. The average distance of the larvae to the odour sources was also quantified over time. The results of this analysis are shown on FIG. 9, for each of the conditions where a VOC of the invention was used. A total of 10 trials were performed for each condition, i.e. for each VOC and fly species, and 30 trials were performed for a control condition, for which only the solvent paraffin oil was applied.
(§2) Behavioural experiments were performed with third instar foraging larvae. A group of approximately 15 larvae per trial was placed in a Petri dish and monitored during 5 minutes for their chemotactic behaviour, as larvae were exposed to an odour gradient in gas phase emanating from the two odour sources on the lid of the Petri dish. […] Larval behaviour was tracked using a video camera and the data derived was then analysed in Matlab (MathWorks) using custom-made programs to calculate additional time-series variables, and to determine the preference index and the distance of larvae to the source.

[3] = test system: larvae of the other species of the Drosophila melanogaster species group; experiment: Fly larva chemotaxis assay; assay type: in vivo, Drosophila spp.; conditions: 1% vol in paraffin oil, 5 minutes
Procedure: as §1, §2

[4] = test system: honeybees (Apis mellifera); experiment: Airborne toxicity on honeybees in the petri dish assay; assay type: in vivo; conditions: applied concentration 4%, paraffin oil, 24 hours
D. melangaster larvae = experiment: Fly larva chemotaxis assay; assay type: in vivo, Drosophila melanogaster; conditions: D. melanogaster larvae, 1% vol in paraffin oil, 5 minutes
Procedure: as §1, §2

D. santomea larvae = experiment: Fly larva chemotaxis assay; assay type: in vivo; conditions: 1% vol in paraffin oil, 5 minutes
Procedure: as §1, §2

[5] = D. melanogaster, concentration 1% vol
[6] = D. melanogaster, concentration 5% vol
[7] = D. melanogaster, concentration 10% vol
[8] = D. melanogaster, concentration 20% vol
[9] = D. melanogaster, concentration 100% vol

Structure (SMILES)	LD50 (expected concentration at which 50% of the flies die) (D. melanogaster)	T50 (time at which 50% of the flies were dead) (D. melanogaster; [5])	T50 (time at which 50% of the flies were dead) (D. melanogaster; [6])	T50 (time at which 50% of the flies were dead) (D. melanogaster; [7])	T50 (time at which 50% of the flies were dead) (D. melanogaster; [8])	T50 (time at which 50% of the flies were dead) (D. melanogaster; [9])	Minimal concentration (%) to induce 100% morbidity/mortality in D. suzukii adults (adult D. suzukii flies)	adult fly emergence from pre-infested blueberries versus control (D. suzukii larvae [1]; 1% vol aqueous emulsion dip)	adult fly emergence from pre-infested blueberries versus control (D. suzukii larvae [1]; 5% vol aqueous emulsion dip)	adult fly emergence from pre-infested blueberries versus control (D. suzukii larvae [1]; 10% vol aqueous emulsion dip)	larval chemotactic response (D. suzukii larvae [2])	larval chemotactic response [3]	Percentage of dead honey bee adults (%) [4]	T50 (D. melanogaster; D. melanogaster, 10% vol)	larval chemotactic response (D. melangaster larvae)	larval chemotactic response (D. santomea larvae)
CCC/C=C/C=O [(E)-2-hexenal]	13.8 % vol	not lethal	not lethal	not lethal	6.5 min	6.2 min	4%	not statistically significantly (NS) different from the control condition	does not result in any adult fly emergence	does not result in any adult fly emergence	attractive chemotactic responses	attractive chemotactic responses	0%			
COC(=O)c1ccccc1 [methyl benzoate, Methyl benzoate]	7.5 % vol	non lethal	non lethal	18.2 min	9.8 min	9.1 min					strongly repulsive			18.2 min	attractive	strongly attractive

Source: US11779015B2, “Pesticide compositions” (FUNDACIÓ CENTRE DE REGULACIÓ GENÒMICA, priority 2017, dated 2023)
